Test results taken from ChEMBL document CHEMBL1909046, “DrugMatrix in vitro pharmacology data”.

Key:
[1] = DRUGMATRIX: beta-Lactamase enzyme inhibition (substrate: Nitrocefin); design: species or system Bacillus cereus; settings: Not Active = under 50% inhibition at 10 µM
[2] = target: 5-hydroxytryptamine receptor 4 (Cavia porcellus, UniProt O70528); type: cell membranes, Dunkin-Hartley, Striatum, Membrane; note: in other assays of this panel Not Active means under 50% inhibition at 10 µM
Cannabinoid receptor 1 = Cannabinoid receptor 1 (Homo sapiens, UniProt P21554); type: cell membranes, Chem-1, Membrane; settings: chem-1; note: in other assays of this panel Not Active means under 50% inhibition at 10 µM
Endothelin-1 receptor = target: T1, Endothelin-1 receptor (Homo sapiens, UniProt P25101); type: cell membranes, Membrane; settings: cho-k1; note: in other assays of this panel Not Active means under 50% inhibition at 10 µM
T1 sequence (P25101 whole entry): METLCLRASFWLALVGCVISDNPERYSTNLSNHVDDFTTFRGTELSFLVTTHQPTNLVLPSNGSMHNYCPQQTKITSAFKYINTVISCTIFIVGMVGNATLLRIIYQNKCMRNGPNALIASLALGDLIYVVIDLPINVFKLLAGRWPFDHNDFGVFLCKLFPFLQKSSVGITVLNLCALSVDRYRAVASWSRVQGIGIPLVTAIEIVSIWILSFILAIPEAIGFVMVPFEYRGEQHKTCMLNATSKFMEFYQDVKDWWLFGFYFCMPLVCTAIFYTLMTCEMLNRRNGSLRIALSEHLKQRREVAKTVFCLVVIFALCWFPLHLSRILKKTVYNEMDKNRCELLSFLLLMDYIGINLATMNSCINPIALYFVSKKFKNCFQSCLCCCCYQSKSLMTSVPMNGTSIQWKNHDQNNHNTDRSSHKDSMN

Melanocortin receptor 5 = Melanocortin receptor 5 (Homo sapiens, UniProt P33032); type: cell membranes, HEK293, Membrane; settings: hek293; note: in other assays of this panel Not Active means under 50% inhibition at 10 µM
[3] = target: Mitogen-activated protein kinase 1 (Homo sapiens, UniProt P28482); experiment: DRUGMATRIX: Protein Serine/Threonine Kinase, ERK2 enzyme inhibition (substrate: Myelin Basic Protein); design: species or system Escherichia coli; settings: Not Active = under 50% inhibition at 10 µM
[4] = target: T2, 5-hydroxytryptamine receptor 1A (Rattus norvegicus, UniProt P19327); type: cell membranes, CHO-K1, Membrane; note: in other assays of this panel Not Active means under 50% inhibition at 10 µM
T2 sequence (P19327 whole entry): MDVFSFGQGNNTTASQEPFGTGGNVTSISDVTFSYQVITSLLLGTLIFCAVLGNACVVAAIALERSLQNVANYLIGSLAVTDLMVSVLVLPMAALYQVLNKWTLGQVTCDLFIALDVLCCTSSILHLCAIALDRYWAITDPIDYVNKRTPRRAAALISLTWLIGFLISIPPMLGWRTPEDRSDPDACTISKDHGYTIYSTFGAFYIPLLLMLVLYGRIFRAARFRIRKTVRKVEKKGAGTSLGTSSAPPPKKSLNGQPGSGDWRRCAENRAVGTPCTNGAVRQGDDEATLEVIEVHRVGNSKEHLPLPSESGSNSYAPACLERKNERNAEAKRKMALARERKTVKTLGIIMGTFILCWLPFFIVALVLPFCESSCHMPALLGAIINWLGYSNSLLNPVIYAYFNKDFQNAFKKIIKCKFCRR

Cytochrome P450 2D6 = Cytochrome P450 2D6 (Homo sapiens, UniProt P10635); settings: bti-tn-5b1-4; note: in other assays of this panel Not Active means under 50% inhibition at 10 µM
Sequence of Cytochrome P450 2D6 (P10635 whole entry): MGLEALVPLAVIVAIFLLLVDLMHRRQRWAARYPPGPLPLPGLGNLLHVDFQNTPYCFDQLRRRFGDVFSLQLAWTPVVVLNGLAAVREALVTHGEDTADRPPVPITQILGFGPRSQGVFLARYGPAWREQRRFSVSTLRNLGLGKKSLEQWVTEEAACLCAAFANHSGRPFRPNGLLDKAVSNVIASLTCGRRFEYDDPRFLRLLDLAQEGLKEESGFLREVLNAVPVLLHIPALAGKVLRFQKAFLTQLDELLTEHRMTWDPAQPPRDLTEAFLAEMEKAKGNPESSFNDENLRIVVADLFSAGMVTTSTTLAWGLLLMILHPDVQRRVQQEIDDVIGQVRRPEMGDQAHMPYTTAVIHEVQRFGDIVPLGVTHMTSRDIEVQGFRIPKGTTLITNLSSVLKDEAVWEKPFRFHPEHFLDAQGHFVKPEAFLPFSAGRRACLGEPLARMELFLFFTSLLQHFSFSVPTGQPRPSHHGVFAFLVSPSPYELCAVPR

Sequence of Mitogen-activated protein kinase 1 (P28482 whole entry): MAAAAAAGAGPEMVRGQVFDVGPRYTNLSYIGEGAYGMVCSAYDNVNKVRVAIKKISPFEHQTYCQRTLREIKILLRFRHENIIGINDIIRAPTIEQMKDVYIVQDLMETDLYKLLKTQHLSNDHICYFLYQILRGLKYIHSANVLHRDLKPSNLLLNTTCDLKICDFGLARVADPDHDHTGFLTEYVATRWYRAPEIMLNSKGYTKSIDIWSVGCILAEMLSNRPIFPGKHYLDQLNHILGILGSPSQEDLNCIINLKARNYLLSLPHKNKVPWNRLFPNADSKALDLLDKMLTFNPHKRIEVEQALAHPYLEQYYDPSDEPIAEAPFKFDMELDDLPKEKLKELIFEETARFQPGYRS
Sequence of Cannabinoid receptor 1 (P21554 whole entry): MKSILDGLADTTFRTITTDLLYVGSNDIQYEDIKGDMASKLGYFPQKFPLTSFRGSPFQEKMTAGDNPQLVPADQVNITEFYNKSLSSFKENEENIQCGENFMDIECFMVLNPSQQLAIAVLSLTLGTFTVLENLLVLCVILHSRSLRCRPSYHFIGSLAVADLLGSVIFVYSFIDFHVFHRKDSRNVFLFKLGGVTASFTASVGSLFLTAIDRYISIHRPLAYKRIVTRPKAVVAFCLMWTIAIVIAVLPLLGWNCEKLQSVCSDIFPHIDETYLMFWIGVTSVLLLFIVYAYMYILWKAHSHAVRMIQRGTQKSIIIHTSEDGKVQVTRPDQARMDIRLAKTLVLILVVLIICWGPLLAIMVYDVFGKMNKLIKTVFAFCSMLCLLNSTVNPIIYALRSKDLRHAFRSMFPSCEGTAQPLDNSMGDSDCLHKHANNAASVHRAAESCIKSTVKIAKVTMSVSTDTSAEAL
Sequence of 5-hydroxytryptamine receptor 4 (O70528 whole entry): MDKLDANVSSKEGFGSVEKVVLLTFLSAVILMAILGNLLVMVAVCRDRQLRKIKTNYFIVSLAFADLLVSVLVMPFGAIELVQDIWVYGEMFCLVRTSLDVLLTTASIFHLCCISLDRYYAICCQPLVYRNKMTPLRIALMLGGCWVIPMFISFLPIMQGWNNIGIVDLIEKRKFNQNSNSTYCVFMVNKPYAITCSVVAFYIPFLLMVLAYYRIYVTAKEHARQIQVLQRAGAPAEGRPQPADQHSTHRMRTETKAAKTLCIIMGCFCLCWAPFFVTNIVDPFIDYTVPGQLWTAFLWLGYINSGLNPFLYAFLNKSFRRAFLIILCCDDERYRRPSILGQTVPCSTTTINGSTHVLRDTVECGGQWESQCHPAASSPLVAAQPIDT
Sequence of Melanocortin receptor 5 (P33032 whole entry): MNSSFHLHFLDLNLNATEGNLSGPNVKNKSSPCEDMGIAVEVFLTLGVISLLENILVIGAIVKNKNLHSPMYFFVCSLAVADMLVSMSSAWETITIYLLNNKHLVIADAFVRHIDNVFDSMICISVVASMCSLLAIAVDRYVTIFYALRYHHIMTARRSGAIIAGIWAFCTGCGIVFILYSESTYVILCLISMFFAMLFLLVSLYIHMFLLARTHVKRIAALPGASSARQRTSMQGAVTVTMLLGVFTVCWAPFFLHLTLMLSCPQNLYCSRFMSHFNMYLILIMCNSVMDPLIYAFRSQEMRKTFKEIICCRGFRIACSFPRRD

| SMILES | IC50 [1] | Ki [1] | IC50 [2] | IC50 (Cannabinoid receptor 1) | IC50 (Endothelin-1 receptor) | IC50 (Melanocortin receptor 5) | IC50 [3] | IC50 ([4]; cho-k1) | IC50 (Cytochrome P450 2D6) | Ki (Cytochrome P450 2D6) | IC50 ([4]; read-out: IC50) [nM] | Ki ([4]; read-out: Ki) [nM] |
| --- | --- | --- | --- | --- | --- | --- | --- | --- | --- | --- | --- | --- |
| CCOc1nc2cccc(C(=O)O)c2n1Cc1ccc(-c2ccccc2-c2nnn[nH]2)cc1 | Not Active | Not Active | Not Active | Not Active | Not Active | Not Active | Not Active | Not Active |  |  |  |  |
| O=C(O)CCCc1cccs1 | Not Active | Not Active | Not Active | Not Active | Not Active | Not Active | Not Active | Not Active | Not Active | Not Active |  |  |
| COc1ccccc1N | Not Active | Not Active | Not Active | Not Active | Not Active | Not Active | Not Active | Not Active | Not Active | Not Active |  |  |
| O=C(c1ccccc1F)N1CCC(Cc2ccccc2)CC1 | Not Active | Not Active | Not Active | Not Active | Not Active | Not Active | Not Active | Not Active | Not Active | Not Active |  |  |
| Cc1c(O)cccc1C(=O)N[C@@H](CSc1ccccc1)[C@H](O)CN1C[C@H]2CCCC[C@H]2C[C@H]1C(=O)NC(C)(C)C | Not Active | Not Active | Not Active | Not Active | Not Active | Not Active | Not Active | Not Active | Not Active | Not Active |  |  |
| CC(O)COC[C@H]1O[C@@H]2O[C@H]3[C@H](O)[C@@H](O)[C@@H](O[C@H]4[C@H](O)[C@@H](O)[C@@H](O[C@H]5[C@H](O)[C@@H](O)[C@@H](O[C@H]6[C@H](O)[C@@H](O)[C@@H](O[C@H]7[C@H](O)[C@@H](O)[C@@H](O[C@H]8[C@H](O)[C@@H](O)[C@@H](O[C@H]1[C@H](O)[C@H]2O)O[C@@H]8COCC(C)O)O[C@@H]7COCC(C)O)O[C@@H]6COCC(C)O)O[C@@H]5COCC(C)O)O[C@@H]4COCC(C)O)O[C@@H]3COCC(C)O (stereo partly drawn) [2-HYDROXYPROPYL-BETA-CYCLODEXTRIN] | Not Active | Not Active | Not Active | Not Active | Not Active | Not Active | Not Active | Not Active | Not Active | Not Active |  |  |
| NC(=O)c1cccc(N)c1 [3-AMINOBENZAMIDE] | Not Active | Not Active | Not Active | Not Active | Not Active | Not Active | Not Active | Not Active | Not Active | Not Active |  |  |
| C[C@H]1O[C@H](O[C@H]2[C@H](O)[C@@H](O)[C@@H](O[C@H]3[C@H](O)[C@@H](O)C(O)O[C@@H]3CO)O[C@@H]2CO)[C@H](O)[C@@H](O)[C@@H]1N[C@H]1C=C(CO)[C@@H](O)[C@H](O)[C@H]1O (stereo partly drawn) [ACARBOSE] | Not Active | Not Active | Not Active | Not Active | Not Active | Not Active | Not Active | Not Active | Not Active | Not Active |  |  |
| CC[C@H]1[C@@H]2C[C@H]3[C@@H]4N(C)c5ccccc5[C@]45C[C@@H]([C@@H]2[C@H]5O)N3[C@@H]1O [AJMALINE] | Not Active | Not Active | Not Active | Not Active | Not Active | Not Active | Not Active | Not Active |  |  |  |  |
| NC12CC3CC(CC(C3)C1)C2 [AMANTADINE] | Not Active | Not Active | Not Active | Not Active | Not Active | Not Active | Not Active | Not Active |  |  |  |  |
| NCCCNCCSP(=O)(O)O [AMIFOSTINE] | Not Active | Not Active | Not Active | Not Active | Not Active | Not Active | Not Active | Not Active | Not Active | Not Active |  |  |
| CN(C)CCC=C1c2ccccc2CCc2ccccc21 [AMITRIPTYLINE] | Not Active | Not Active | Not Active | Not Active | Not Active | Not Active | Not Active |  | Not Active | Not Active | 2000 | 1140 |
| CC(=O)Oc1ccccc1C(=O)O [ASPIRIN] | Not Active | Not Active | Not Active | Not Active | Not Active | Not Active | Not Active | Not Active | Not Active | Not Active |  |  |
| CC(C)c1c(C(=O)Nc2ccccc2)c(-c2ccccc2)c(-c2ccc(F)cc2)n1CC[C@@H](O)C[C@@H](O)CC(=O)O [ATORVASTATIN] | Not Active | Not Active | Not Active | Not Active | Not Active | Not Active | Not Active | Not Active |  |  |  |  |
| CC(=O)OC[C@H]1O[C@@H](n2ncc(=O)[nH]c2=O)[C@H](OC(C)=O)[C@@H]1OC(C)=O [AZARIBINE] | Not Active | Not Active | Not Active | Not Active | Not Active | Not Active | Not Active | Not Active | Not Active | Not Active |  |  |
| CO/N=C(\C(=O)N[C@@H]1C(=O)N2C(C(=O)O)=C(COC(C)=O)CS[C@H]12)c1csc(N)n1 [CEFOTAXIME] | Not Active | Not Active | Not Active | Not Active | Not Active | Not Active |  | Not Active | Not Active | Not Active |  |  |
| CN1CCN(C(c2ccccc2)c2ccccc2)CC1 [CYCLIZINE] | Not Active | Not Active | Not Active | Not Active | Not Active | Not Active | Not Active | Not Active |  |  |  |  |
| CC(C)(C(=O)O)c1ccc(C(O)CCCN2CCC(C(O)(c3ccccc3)c3ccccc3)CC2)cc1 (stereo not drawn) [FEXOFENADINE] | Not Active | Not Active | Not Active | Not Active | Not Active | Not Active | Not Active | Not Active |  |  |  |  |
| CC(=O)OCC(=O)[C@@]12OC(C)(C)O[C@@H]1C[C@H]1[C@@H]3C[C@H](F)C4=CC(=O)C=C[C@]4(C)[C@@]3(F)[C@@H](O)C[C@@]12C [FLUOCINONIDE] | Not Active | Not Active | Not Active | Not Active | Not Active | Not Active | Not Active | Not Active |  |  |  |  |
| N[C@@H](Cn1ccc(=O)c(O)c1)C(=O)O [L-MIMOSINE] | Not Active | Not Active | Not Active | Not Active | Not Active | Not Active | Not Active | Not Active |  |  |  |  |
| C[C@@H]1C/C=C/C=C/C=C/C=C/[C@H](O[C@@H]2O[C@H](C)[C@@H](O)[C@H](N)[C@@H]2O)C[C@@H]2O[C@](O)(C[C@@H](O)C[C@H]3O[C@@H]3/C=C/C(=O)O1)C[C@H](O)[C@H]2C(=O)O [NATAMYCIN] | Not Active | Not Active | Not Active | Not Active | Not Active | Not Active | Not Active | Not Active |  |  |  |  |
| NNCCc1ccccc1 [PHENELZINE] | Not Active | Not Active | Not Active | Not Active | Not Active | Not Active | Not Active | Not Active |  |  |  |  |
| CC[C@]1(O)C[C@@H]2CN(CCc3c([nH]c4ccccc34)[C@@](C(=O)OC)(c3cc4c(cc3OC)N(C)[C@H]3[C@@](O)(C(N)=O)[C@H](O)[C@]5(CC)C=CCN6CC[C@]43[C@@H]65)C2)C1 [VINDESINE] | Not Active | Not Active | Not Active | Not Active | Not Active | Not Active | Not Active | Not Active |  |  |  |  |
